Laboratory results: patent EP3495350B1, “COMPOUND INHIBITING FORMATION OF C-MYC/MAX/DNA COMPLEX” (National Cancer Center, priority 2016, dated 2018)

Tests used:
[1] = Cell based assay, cell viability (CellTiter-Glo), RT4 (selectivity); conditions: human, rt4 cells; selectivity evaluation, Table 6; benign; read-out: Cytotoxicity (µM) RT4
Procedure: Commercially available bladder cancer cell lines were treated with trypsin-EDTA and seeded in each well of a 96 well plate, followed by incubation for 24 hours. […] The compound-treated cells were further incubated for 72 hours. Cell viability was measured using an ATP detection method (CellTiter-Glo Luminescent Cell Viability Assay, Promega).
The selectivity of the compounds of the present disclosure to cancer cells was evaluated in the same manner as described in "2. Cell based assay".

MBT-2 = assay: Cell based assay, cell viability (CellTiter-Glo), MBT-2; conditions: 72 hours, 0 to 2 µM; read-out: cell based assay cell line 1 MBT-2 IC50
zebrafish = assay: Cardiotoxicity experiment using zebrafish (heart rate, lethality); format: in vivo; conditions: 5 µM, n=10
recombinant c-Myc/Max = assay: Protein assay: electrophoretic mobility shift assay (EMSA) of DNA binding of c-Myc/Max; format: biochemical
Procedure: Recombinant proteins were prepared as described in the following references: K. C. Jung et al., Fatty Acids, Inhibitors for the DNA Binding of c-Myc/Max Dimer, Suppress Proliferation and Induce Apoptosis of Differentiated HL-60 Human Leukemia Cell, Leukemia, 2006, 20(1), 122-7 or Kyung-Chae Jeong et al., Small-Molecule Inhibitors of c-Myc Transcriptional Factor Suppress Proliferation and Induce Apoptosis of Promyelocytic Leukemia Cell via Cell Cycle Arrest, Mol. BioSyst., 2010, 6, 1503-1509.
The inhibitory activity of each candidate compound on DNA binding of recombinant c-Myc/Max was measured using an electrophoretic mobility shift assay (EMSA). The ratio of protein-DNA complexes in each sample was evaluated by measuring band intensity. The oligonucleotides (E-box, 5'-biotin-[…]-3'-biotin) corresponding to the consensus binding site of Myc/Max were dimerized through an annealing process. The protein mixture was incubated at room temperature for 5 minutes, and a DMSO solution containing each candidate compound was added thereto. The mixture was further incubated for 5 minutes, and the biotinylated DNA was added. To achieve a state of equilibrium, the final mixture was incubated at room temperature for 10 minutes. […] Each band was visualized using HRP-conjugated streptavidin and an ECL solution, and band intensity was measured using image analysis software.

UM-UC-3 = assay: Cell based assay, cell viability (CellTiter-Glo), UM-UC-3; conditions: Homo sapiens, UMUC3; 72 hours, 0 to 2 µM; read-out: cell based assay cell line 4 UM-UC-3 IC50
[2] = Single toxicity test (IV and IP single dose); format: in vivo, Mouse; conditions: 40 mg/kg
KU19-19 = assay: Cell based assay, cell viability (CellTiter-Glo), KU19-19; conditions: Homo sapiens, KU-19-19; 72 hours, 0 to 2 µM; read-out: cell based assay cell line 2 KU19-19 IC50
253J = assay: Cell based assay, cell viability (CellTiter-Glo), 253J; conditions: Homo sapiens; 72 hours, 0 to 2 µM; read-out: cell based assay cell line 3 253J IC50

**Q.** For `CC(=O)c1c([S+]([O-])Cc2ccccc2)nc2c(Br)ccc(Cl)c2c1O` (stereo not drawn) [Compound 4, 3-acetyl-2-(benzylsulfinyl)-8-bromo-5-chloroquinolin-4(1H)-one], which CC50 at 72 h [1] is on record?
**A.** > 10 µM

**Q.** What about the IC50 (MBT-2) of the same molecule?
**A.** 960 nM

**Q.** What about the “Changes in heart rate (%)” value (zebrafish; mean) of the same molecule?
**A.** 88.5%

**Q.** What about the Lethality (zebrafish) of the same molecule?
**A.** 1/10

**Q.** What about the IC50 (recombinant c-Myc/Max) of the same molecule?
**A.** < 1000 nM

**Q.** And the IC50 (UM-UC-3)?
**A.** 1330 nM

**Q.** What about the deaths ([2]; IV and IP single-dose administration of 40 mpk) of the same molecule?
**A.** no deaths

**Q.** What about the “General symptoms (feed intake, drinking water intake)” value ([2]; mouse, in vivo) of the same molecule?
**A.** no abnormal symptoms

**Q.** What about the Weight changes ([2]; mouse, in vivo) of the same molecule?
**A.** no significant weight changes

**Q.** What about the Percentage ([2]; mouse, in vivo, ip) of the same molecule?
**A.** 0 (0/2)

**Q.** What about the mortality ([2]; mouse, in vivo, ip) of the same molecule?
**A.** 0%

**Q.** And the Percentage ([2]; mouse, in vivo, iv)?
**A.** 0 (0/2)

**Q.** What about the mortality ([2]; mouse, in vivo, iv) of the same molecule?
**A.** 0%

**Q.** And the IC50 (KU19-19)?
**A.** 1050 nM

**Q.** What about the IC50 (253J) of the same molecule?
**A.** 1000 nM
